Measurements published in publication PMC4413211, “Esters of the Marine-Derived Triterpene Sipholenol A Reverse P-GP-Mediated Drug Resistance” (Marine Drugs, 2015).
pEC50: −log10 of the molar value.

Legend:
[1] = test system: SW620; assay: cells; design: species or system SW620; SW620/Ad300; MTT cytotoxicity assay, absorbance at 570 nm; conditions: Homo sapiens, SW-620, 72 h
Procedure: (§1) The MTT colorimetric assay was used to detect the sensitivity of cells to anticancer drugs. Cells were harvested with trypsin treatment. After washing with PBS, cells were resuspended in the culture media. Cells with a final concentration of 5 × 10^3 cells/well were seeded evenly into 96-well plates with 160 μL media. For the reversal experiments, SSJ compounds, verapamil, FTC or PAK104P (20 μL/well) was added followed by different concentrations of chemotherapeutic drugs (20 μL/well) into designated wells. After 72 h of incubation, 20 μL of MTT solution (5 mg/mL) was added to each well, and the plate was further incubated for 4 h, allowing viable cells to convert the yellow colored MTT into dark-blue formazan crystals. Subsequently, the medium was discarded, and 100 μL of dimethylsulfoxide (DMSO) was added into each well to dissolve the formazan crystals. The absorbance was determined at 570 nm by an OPSYS Microplate Reader from DYNEX Technologies Inc. (Chantilly, VA, USA) followed previously described protocol. The fold of resistance was calculated by dividing the IC50 (concentrations required to inhibit growth by 50%) of the MDR cells by that of the parental sensitive cells. Sipholane analogs (14 compounds) were first tested for cytotoxicity using MTT assay on colon cancer cells SW620 (drug-sensitive) and SW620/Ad300 (drug-resistant). […] Because these compounds were used at a concentration of 5 μM, which is the non-toxic concentration for all of them, they were considered to have no direct cytotoxic effect on cells. HEK293/pcDNA3.1, HEK/ABCB1, HEK/ABCG2 and HEK/ABCC1 cells were generated by transfecting the HEK293 cells with either empty pcDNA3.1 vector, ABCB1 expression vector, ABCG2 expression vector or ABCC1 expression vector respectively. HEK/ABCC1 was generated in the laboratory of Suresh V. Ambudkar (NCI, NIH, Bethesda, MD, USA). The human colon cancer cell line SW620 and doxorubicin-selected P-gp overexpressing SW620/Ad300 cell line were used for the reversal study. SW620, SW620/Ad300 and HEK/ABCG2 cells were also kindly provided by Susan Bates and Robert Robey (NCI, NIH, Bethesda, MD, USA). All the cell lines were grown as adherent monolayers in flasks with DMEM culture medium (GE Healthcare Life Sciences, Logan, UT, USA) supplemented with 10% bovine serum in a humidified incubator containing of 5% CO2 at 37 °C.

[2] = test system: T1, SW620/Ad300; assay: cells; design: MTT cytotoxicity assay, absorbance at 570 nm; conditions: Homo sapiens, SW620/AD300, 72 h
T1 construct: doxorubicin-selected, P-gp overexpressing
Procedure: as §1

[3] = molecular target: T2, P-glycoprotein (P-gp/ABCB1) (Homo sapiens, UniProt P08183); assay: Vanadate-sensitive ATPase stimulation in recombinant human P-gp membranes; supported by [3H]-paclitaxel accumulation/efflux in cells; type: biochemical; design: Recombinant human P-gp membrane
[4] = molecular target: T2, P-glycoprotein (P-gp/ABCB1)

T2 sequence (P08183 whole entry): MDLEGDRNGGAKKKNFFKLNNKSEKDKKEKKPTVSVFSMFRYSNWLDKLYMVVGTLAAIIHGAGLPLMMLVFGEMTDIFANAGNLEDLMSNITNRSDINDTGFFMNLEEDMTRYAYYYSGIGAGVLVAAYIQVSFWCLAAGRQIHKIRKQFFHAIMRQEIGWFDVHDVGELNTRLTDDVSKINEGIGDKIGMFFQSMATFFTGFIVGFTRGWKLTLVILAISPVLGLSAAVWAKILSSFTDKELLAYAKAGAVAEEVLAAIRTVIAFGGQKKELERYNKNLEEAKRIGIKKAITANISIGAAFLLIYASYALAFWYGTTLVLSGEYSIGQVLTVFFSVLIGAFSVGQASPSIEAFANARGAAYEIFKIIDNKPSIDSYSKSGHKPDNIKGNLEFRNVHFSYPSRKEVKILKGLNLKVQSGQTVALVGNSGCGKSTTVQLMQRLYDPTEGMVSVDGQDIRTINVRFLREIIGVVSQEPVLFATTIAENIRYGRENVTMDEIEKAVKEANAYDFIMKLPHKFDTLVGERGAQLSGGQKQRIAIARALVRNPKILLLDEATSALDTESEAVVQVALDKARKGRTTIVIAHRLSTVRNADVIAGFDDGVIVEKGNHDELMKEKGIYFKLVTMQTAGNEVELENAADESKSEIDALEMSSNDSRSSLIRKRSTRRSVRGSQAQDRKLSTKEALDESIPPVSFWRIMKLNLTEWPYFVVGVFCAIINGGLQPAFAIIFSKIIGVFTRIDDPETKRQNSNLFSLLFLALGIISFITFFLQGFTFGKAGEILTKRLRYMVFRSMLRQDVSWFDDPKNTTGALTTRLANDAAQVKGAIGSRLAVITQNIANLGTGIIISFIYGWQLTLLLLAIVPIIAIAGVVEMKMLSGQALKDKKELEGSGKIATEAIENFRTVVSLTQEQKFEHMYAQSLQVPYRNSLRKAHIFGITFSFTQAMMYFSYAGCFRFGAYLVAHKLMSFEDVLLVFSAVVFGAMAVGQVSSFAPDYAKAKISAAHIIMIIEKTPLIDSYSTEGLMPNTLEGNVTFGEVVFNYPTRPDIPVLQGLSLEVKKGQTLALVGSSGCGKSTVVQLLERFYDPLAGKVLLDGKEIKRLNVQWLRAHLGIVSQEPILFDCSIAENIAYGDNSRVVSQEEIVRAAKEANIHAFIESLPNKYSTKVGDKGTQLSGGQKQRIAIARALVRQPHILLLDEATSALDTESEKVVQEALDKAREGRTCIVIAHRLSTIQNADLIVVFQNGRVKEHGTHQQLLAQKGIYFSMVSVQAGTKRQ

How did the IC50 [1] turn out when CC1=CCC2C(CCC2(C)O)C(C)(C)C1CCC1C(C)(O)CCC2OC(C)(C)C(OC(=O)CCC(=O)O)CCC21C (stereo not drawn) [SSJ25 (2)] was run?
Its IC50 is > 30 µM.

What about the IC50 [2] of the same compound?
Its IC50 is > 30 µM.

For CC(=O)O[C@H]1CC[C@]2(C)[C@H](CC[C@@](C)(O)[C@H]2CC[C@H]2C(C)=CC[C@H]3[C@H](CC[C@]3(C)O)C2(C)C)OC1(C)C [SSJ26, sipholenol A-4-O-acetate], which IC50 [1] is on record?
Its IC50 is > 30 µM.

What about the IC50 [2] of the same compound?
The IC50 was > 30 µM.

And the pEC50 [3]?
The pEC50 was 6.59.

Which results are given for CC(=O)OC1CCC2(C)C(CCC(C)(O)C2CCC2C(C)=CCC3C(CCC3(C)OC(C)=O)C2(C)C)OC1(C)C (stereo not drawn) [SSJ27 (4)]?
IC50 [1]: > 30 µM; IC50 [2]: > 30 µM

Which results are given for CC1=CCC2C1CC=C(C)C(CCC1C(C)(O)CCC3OC(C)(C)C(O)CCC31C)C2(C)C (stereo not drawn) [SSJ28 (5)]?
IC50 [1]: > 30 µM; IC50 [2]: > 30 µM

What does the source list for CC1=CCC2C1CC=C(C)C(CCC1C(C)(O)CCC3OC(C)(C)C(OC(=O)c4ccccc4)CCC31C)C2(C)C (stereo not drawn) [SSJ29 (6)]?
IC50 [1]: > 30 µM; IC50 [2]: > 30 µM

Which IC50 [1] does the source give for CC1=CCC2C(CCC2(C)O)C(C)(C)C1CCC1C(C)(O)CCC2OC(C)(C)C(OC(=O)c3ccccc3)CCC21C (stereo not drawn) [SSJ31 (8)] here?
Its IC50 is > 30 µM.

What about the IC50 [2] of the same compound?
The IC50 was > 30 µM.

For CC1=CC[C@H]2[C@H](CC[C@]2(C)O)C(C)(C)[C@H]1CC[C@H]1[C@]2(C)CC[C@H](OC(=O)c3ccncc3)C(C)(C)O[C@H]2CC[C@@]1(C)O [SSJ32, sipholenol A-4-O-isonicotinate], which IC50 [1] is on record?
The IC50 was > 30 µM.

What about the IC50 [2] of the same compound?
Its IC50 is > 30 µM.

And the pEC50 [3]?
Its pEC50 is 6.22.

With CC1=CCC2C1CC=C(C)C(CCC1C(C)(O)CCC3OC(C)(C)C(OC(=O)c4ccncc4)CCC31C)C2(C)C (stereo not drawn) [SSJ33 (10)] as the compound, how does the IC50 [1] read?
The IC50 was > 30 µM.

What about the IC50 [2] of the same compound?
The IC50 was > 30 µM.

What does the source list for CC1=CCC2C1CC=C(C)C(CCC1C(C)(O)CCC3OC(C)(C)C(OC(=O)CCC(=O)O)CCC31C)C2(C)C (stereo not drawn) [SSJ34 (11)]?
IC50 [1]: > 30 µM; IC50 [2]: > 30 µM

What does the source list for CC(=O)OC1CCC2(C)C(CCC(C)(O)C2CCC2C(C)=CCC3C(C)=CCC3C2(C)C)OC1(C)C (stereo not drawn) [SSJ35 (12)]?
IC50 [1]: > 30 µM; IC50 [2]: > 30 µM

With CC1=CCC2C(CCC2(C)O)C(C)(C)C1CCC1C(C)(O)CCC2OC(C)(C)C(OCc3ccccc3)CCC21C (stereo not drawn) [SSJ36 (13)] as the compound, how does the IC50 [1] read?
The IC50 was > 30 µM.

And the IC50 [2]?
Its IC50 is > 30 µM.

For CC1=CCC2C1CC=C(C)C(CCC1C(C)(O)CCC3OC(C)(C)C(OCc4ccccc4)CCC31C)C2(C)C (stereo not drawn) [SSJ37 (14)], which IC50 [1] is on record?
Its IC50 is > 30 µM.

And the IC50 [2]?
Its IC50 is > 30 µM.

How did the “[3H]-paclitaxel accumulation and efflux, resistant versus parental cells” value [4] turn out when CC(=O)O[C@H]1C(=O)[C@@]2(C)[C@H]([C@H](OC(=O)c3ccccc3)[C@]3(O)C[C@H](OC(=O)[C@H](O)[C@@H](NC(=O)c4ccccc4)c4ccccc4)C(C)=C1C3(C)C)[C@]1(OC(C)=O)CO[C@@H]1C[C@@H]2O [paclitaxel] was run?
Its value is “while the paclitaxel level significantly decreased in SW620/Ad300 drug-resistant cells, the levels of paclitaxel remained stable in parental SW620”.
